{"source": "paper PMC9127750", "about": "“Structure-based design of CDC42 effector interaction inhibitors for the treatment of cancer” (Cell reports, 2022)", "test_system": "WM3248 melanoma cells, 486 antibodies", "test": "Reverse phase protein arrays (RPPA)", "assay_type": "cell-based, Human", "details": "10, normalized to 0", "text": "Pellets were snap frozen in liquid nitrogen and shipped to MD Anderson Cancer Center core RPPA facility for RPPA analysis (Table S5). Three biological replicates for each sample were generated.\nNomenclatures on the RPPA heatmaps: name_of_antibody.species_of_antibody.status_of_antibody. V - antibody validated; C - validation of antibody in progress; Q - antibody nonspecific; E – under evaluation; antibodies raised in M - mouse, G - goat, R - rabbit, or T - rat.", "note": "“And” between values parts separate entries of the source, which are not always exact repeats. Identical values can stand only once."}
{"smiles": "CN(C)c1cccc(Nc2cc(-c3ccccc3)nc(C3CCNCC3)n2)c1", "note": "[ARN22089, N1,N1-dimethyl-N3-(6-phenyl-2-(piperidin-4-yl)pyrimidin-4-yl)benzene-1,3-diamine]", "values": [{"measurement": "FoxO3a_pS318_S321.R.C Norm_10 Average", "setting": "average", "result": 1.029}, {"measurement": "G6PD.R.V Norm_10 Average", "setting": "average", "result": 1.034}, {"measurement": "GATA3.M.V Norm_10 Average", "setting": "average", "result": 1.281}, {"measurement": "GATA6.R.V Norm_10 Average", "setting": "average", "result": 1.018}, {"measurement": "GCLC.R.C Norm_10 Average", "setting": "average", "result": 0.996}, {"measurement": "GCLM.R.V Norm_10 Average", "setting": "average", "result": 1.023}, {"measurement": "GCN5L2.R.V Norm_10 Average", "setting": "average", "result": 0.928}, {"measurement": "GRB2.R.V Norm_10 Average", "setting": "average", "result": 0.887}, {"measurement": "GRB7.R.V Norm_10 Average", "setting": "average", "result": 0.924}, {"measurement": "GSK.3B.R.C Norm_10 Average", "setting": "average", "result": 0.899}, {"measurement": "GSK.3a.b.M.V Norm_10 Average", "setting": "average", "result": 1.031}, {"measurement": "GSK.3a.b_pS21_S9.R.V Norm_10 Average", "setting": "average", "result": 1.266}, {"measurement": "Gab2.R.V Norm_10 Average", "setting": "average", "result": 1.065}, {"measurement": "Gli1.R.C Norm_10 Average", "setting": "average", "result": 1.005}, {"measurement": "Gli3.R.C Norm_10 Average", "setting": "average", "result": 1.134}, {"measurement": "Glucocorticoid.Receptor.R.V Norm_10 Average", "setting": "average", "result": 1.119}, {"measurement": "Glutamate.D1.2.R.V Norm_10 Average", "setting": "average", "result": 1.156}, {"measurement": "Granzyme.B.R.V Norm_10 Average", "setting": "average", "result": 0.968}, {"measurement": "Grp75.R.C Norm_10 Average", "setting": "average", "result": 1.129}, {"measurement": "Gys.R.V Norm_10 Average", "setting": "average", "result": 0.931}, {"measurement": "Gys_pS641.R.V Norm_10 Average", "setting": "average", "result": 0.978}, {"measurement": "H2AX_pS139.R.C Norm_10 Average", "setting": "average", "result": 0.977}, {"measurement": "H2AX_pS140.M.C Norm_10 Average", "setting": "average", "result": 1.138}, {"measurement": "HER2.M.V Norm_10 Average", "setting": "average", "result": 1.033}, {"measurement": "HER2_pY1248.R.V Norm_10 Average", "setting": "average", "result": 0.915}, {"measurement": "HER3_pY1289.R.C Norm_10 Average", "setting": "average", "result": 1.047}, {"measurement": "HES1.R.V Norm_10 Average", "setting": "average", "result": 0.974}, {"measurement": "eEF2.R.C Norm_10 Average", "setting": "average", "result": 1.492}, {"measurement": "eEF2K.R.V Norm_10 Average", "setting": "average", "result": 1.201}, {"measurement": "eIF4E.R.V Norm_10 Average", "setting": "average", "result": 0.994}, {"measurement": "eIF4E_pS209.R.V Norm_10 Average", "setting": "average", "result": 0.960}, {"measurement": "eIF4G.R.C Norm_10 Average", "setting": "average", "result": 0.972}, {"measurement": "DNMT1.R.V Norm_10", "setting": "replicates 1-3", "result": "1.003 and 1.020 and 1.147"}, {"measurement": "DRP1.R.V Norm_10", "setting": "replicates 1-3", "result": "0.964 and 0.992"}, {"measurement": "DUSP4.R.V Norm_10", "setting": "replicates 1-3", "result": "0.853 and 0.881 and 0.939"}, {"measurement": "DUSP6.R.C Norm_10", "setting": "replicates 1-3", "result": "1.409 and 0.561"}, {"measurement": "DYRK1B.R.C Norm_10", "setting": "replicates 1-3", "result": "0.895 and 0.964 and 0.986"}, {"measurement": "Dvl3.R.V Norm_10", "setting": "replicates 1-3", "result": "0.922 and 1.053 and 0.910"}, {"measurement": "E2F1.R.V Norm_10", "setting": "replicates 1-3", "result": "1.049 and 1.123 and 1.077"}, {"measurement": "E.Cadherin.R.V Norm_10", "setting": "replicates 1-3", "result": "0.791 and 0.958"}, {"measurement": "EGFR.R.V Norm_10", "setting": "replicates 1-3", "result": "0.866 and 1.059 and 1.002"}, {"measurement": "EGFR_pY1068.R.C Norm_10", "setting": "replicates 1-3", "result": "0.894 and 0.930 and 1.047"}, {"measurement": "EGFR_pY1173.R.V Norm_10", "setting": "replicates 1-3", "result": "1.016 and 0.963 and 0.929"}, {"measurement": "EMA.M.C Norm_10", "setting": "replicates 1-3", "result": "0.676 and 1.005"}, {"measurement": "ENY2.M.C Norm_10", "setting": "replicates 1-3", "result": "0.937 and 1.132"}, {"measurement": "ER.a.R.V Norm_10", "setting": "replicates 1-3", "result": "0.989 and 0.867 and 0.907"}, {"measurement": "ER.a_pS118.R.V Norm_10", "setting": "replicates 1-3", "result": "1.111 and 0.755 and 0.869"}, {"measurement": "ERCC1.R.C Norm_10", "setting": "replicates 1-3", "result": "0.934 and 1.208 and 0.991"}, {"measurement": "ERCC5.R.C Norm_10", "setting": "replicates 1-3", "result": "0.985 and 0.864"}, {"measurement": "ERRalpha.R.V Norm_10", "setting": "replicates 1-3", "result": "0.941 and 1.106 and 0.995"}, {"measurement": "EVI1.R.V Norm_10", "setting": "replicates 1-3", "result": "0.864 and 1.146 and 1.022"}, {"measurement": "Elk1_pS383.R.C Norm_10", "setting": "replicates 1-3", "result": "1.027 and 0.931"}, {"measurement": "Enolase.1.R.V Norm_10", "setting": "replicates 1-3", "result": "0.940 and 1.265 and 1.276"}, {"measurement": "Enolase.2.R.V Norm_10", "setting": "replicates 1-3", "result": "0.995 and 1.149 and 0.982"}, {"measurement": "EphA2.R.V Norm_10", "setting": "replicates 1-3", "result": "0.867 and 0.985 and 0.905"}, {"measurement": "EphA2_pS897.R.C Norm_10", "setting": "replicates 1-3", "result": "0.664 and 0.906 and 1.028"}, {"measurement": "EphA2_pY588.R.C Norm_10", "setting": "replicates 1-3", "result": "0.917 and 0.980 and 0.925"}, {"measurement": "Erk5.R.V Norm_10", "setting": "replicates 1-3", "result": "0.835 and 0.809 and 0.986"}, {"measurement": "Ets.1.R.V Norm_10", "setting": "replicates 1-3", "result": "1.099 and 1.361 and 1.457"}, {"measurement": "FABP5.R.C Norm_10", "setting": "replicates 1-3", "result": "0.950 and 1.278 and 1.483"}, {"measurement": "FAK.R.C Norm_10", "setting": "replicates 1-3", "result": "0.896 and 0.913 and 1.054"}, {"measurement": "FAK_pY397.R.V Norm_10", "setting": "replicates 1-3", "result": "0.925 and 1.035 and 0.946"}, {"measurement": "FANCD2.R.V Norm_10", "setting": "replicates 1-3", "result": "0.931 and 0.985 and 0.874"}, {"measurement": "FASN.R.V Norm_10", "setting": "replicates 1-3", "result": "1.108 and 0.851 and 0.928"}, {"measurement": "FGF.basic.R.C Norm_10", "setting": "replicates 1-3", "result": "0.849 and 0.905 and 1.085"}, {"measurement": "FN14.R.C Norm_10", "setting": "replicates 1-3", "result": 1.121}, {"measurement": "FOXM1.R.V Norm_10", "setting": "replicates 1-3", "result": "0.803 and 0.992 (2×)"}, {"measurement": "FOXO3.R.V Norm_10", "setting": "replicates 1-3", "result": "0.977 and 1.253 and 1.014"}, {"measurement": "FRS2.alpha_pY196.R.V Norm_10", "setting": "replicates 1-3", "result": "0.953 and 2.062 and 1.103"}, {"measurement": "FTO.R.V Norm_10", "setting": "replicates 1-3", "result": "0.987 and 1.185 and 1.127"}, {"measurement": "Fibronectin.R.V Norm_10", "setting": "replicates 1-3", "result": "0.978 and 1.062 and 1.006"}, {"measurement": "FoxO3a_pS318_S321.R.C Norm_10", "setting": "replicates 1-3", "result": "0.963 and 1.140 and 0.984"}, {"measurement": "G6PD.R.V Norm_10", "setting": "replicates 1-3", "result": "0.932 and 1.169 and 1.001"}, {"measurement": "GATA3.M.V Norm_10", "setting": "replicates 1-3", "result": "1.235 and 1.401 and 1.207"}, {"measurement": "GATA6.R.V Norm_10", "setting": "replicates 1-3", "result": "1.020 and 1.082 and 0.952"}, {"measurement": "GCLC.R.C Norm_10", "setting": "replicates 1-3", "result": "0.939 and 0.967 and 1.083"}, {"measurement": "GCLM.R.V Norm_10", "setting": "replicates 1-3", "result": "0.965 and 1.111 and 0.992"}, {"measurement": "GCN5L2.R.V Norm_10", "setting": "replicates 1-3", "result": "0.997 and 0.898 and 0.890"}, {"measurement": "GGPS1.M.V Norm_10", "setting": "replicates 1-3", "result": "0.913 and 1.085 and 1.264"}, {"measurement": "GRB2.R.V Norm_10", "setting": "replicates 1-3", "result": "0.867 and 0.876 and 0.919"}, {"measurement": "GRB7.R.V Norm_10", "setting": "replicates 1-3", "result": "0.829 and 0.838 and 1.106"}]}
